The target of one assay is Wee-1 kinase (Homo sapiens (Human), UniProt P30291). Kind of assay: Measurement of Wee-1 kinase activity (ADP-Glo luminescence). It is filed as biochemical. An outline of the steps:
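Activated Wee-1 preincubated 30 min at RT with compound in Tris/MgCl2 buffer with BSA and DTT, then reacted 1 h at RT with poly(Lys,Tyr 4:1) (2.0 μg/mL) and 30 μM ATP as added aliquot. ADP formed measured by ADP-Glo luminescence; IC50 by non-linear regression of % inhibition.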
(In ADP-Glo the light output rises with the ADP produced.)

In a further assay the test system is A498 cells. Description: Cell viability (CellTiter-Glo), A498. It is filed as cell-based. The conditions noted are these: Homo sapiens, A498, 144 h; cell viability after 6 days. How it is done:
(§1) All cell lines (HT29, A427, A498, SKLU-1) were obtained from the American Type Culture Collection (ATCC), maintained in the recommended media supplemented with 10% (v/v) FBS, 1% (v/v) Penicillin/streptomycin and kept at 37° C. in a humidified atmosphere with 5% CO2. Cells were seeded in 96 wp format typically at a seeding density of 3500-5000 cells/well and treated after 24 hours with increasing concentration of compound from 0 to 100 μM in ½ log unit increments. Cell viability was assessed after 72 hours (HT29, A427) or after 6 days (SKLU-1, A498) by CellTiter-Glo® as recommended by the manufacturer's instructions (Promega). Analysis and EC50 values were derived using GraphPadPrism.

The next assay concerns HT29 cells. Description: Cell viability (CellTiter-Glo), HT29. The class given is cell-based. As to conditions: Homo sapiens, HT-29; cell viability after 72 hours. How it is done: as §1
On the technique in general: ATP-based viability assays read luminescence as a measure of living cells.

The next assay has as its system SK-LU-1 cells. Kind of assay: Cell viability (CellTiter-Glo), SK-LU-1. It is filed as cell-based. As to conditions: Homo sapiens, SK-LU-1, 144 h; cell viability after 6 days. How it is done: as §1
Assay [1] has as its system phosphorylation of Cdc2 at Tyr15. Description: ELISA for phosphorylation of Cdc2 at Tyr15 in HT-29 / HCT-116 cells. It is filed as cell-based. The conditions noted are these: Homo sapiens, read-out: ELISA p-CDC2 EC50. How it is done:
Method 2: Determining the Effect of Compounds on the Phosphorylation of Cdc2 at Tyr15
The colorectal cancer cell lines HT-29 and HCT-116 were purchased from the ATCC and routinely maintained in McCoy's Medium (Invitrogen) supplemented with 10% Foetal Calf Serum.
The cells were trypsinised from their growing vessel and counted, 100 μL of cell suspension containing 6000 cells was pipetted into black 96 well Co-star plates and incubated overnight to allow adherence to the surface at a temperature of 37° C. and an atmosphere of 5% CO2. Test compounds were formulated in DMSO and diluted in foetal calf serum supplemented medium. Incubating medium was removed by aspiration and diluted drug supplemented medium added to each well.
The plate was returned to the incubator for an additional eight hours at 37° C. and an atmosphere of 5% CO2. Post incubation, the drug supplemented medium was aspirated from each well and the cells were washed once in ice-cold phosphate buffered saline (PBS). 100 μL of cell lysis buffer (Cell Signalling Technologies #9803) containing 20 mM Tris, 150 mM NaCl, 1 mM EDTA, 1 mM EGTA, 1% Triton-X100, 2.5 mM sodium pyrophosphate, 1 mM glycerophosphate, 1 mM Na3VO4 and 1 μg/mL leupeptin was added to each well of the 96 well plate and incubated at 4° C. for 30 min. The samples on the plate were snap frozen at −80° C. until required. Immediately before the continuation of the assay, the sample plate was thawed and centrifuged at 4° C. for 10 min and the supernatant transferred to secondary tubes or 96 well plate.
Cell supernatant was mixed in a ratio of 1:1 with sample dilutent buffer and vortexed for one minute. 100 μL of diluted sample was pipetted into pre-coated plates containing a rabbit polyclonal antibody for phospho-cdc2 (Tyr15) (Cell Signalling Technologies PathScan kit #7176). The plate was sealed and incubated overnight at 4° C.
The plate seal was removed and the well contents aspirated, followed by 3×5 min washes with 200 μL of diluted wash buffer. Between each wash the plate was tapped firmly onto blotting paper to ensure the removal of all kit solution. 100 μL of kit detection antibody was added to each well and the plate re-sealed and incubated at 37° C. for 1 h. Post incubation the plate was washed and processed in a similar manner to that previously described.
100 μL of horseradish peroxidise-linked secondary antibody was added to each test well, the plate sealed and incubated for thirty minutes at 37° C. Post incubation, the plate was washed as previously stated, followed by the addition of 100 μL of 3,3′,5,5′ tetramethylbenzidine (TMB reagent). The plate was sealed and incubated at RT for 30 min.
100 μL of stop solution was added to each well and the underside of the plate wiped with a lint-free tissue, prior to spectrophotometric determination. Absorbance from each well was read at 450 nm within 30 min of the addition of the stop solution.
The percentage of phospho-cdc2 was calculated compared to DMSO control and plotted versus the concentration of inhibitor using GraphPad Prism. Data was fitted using non-linear regression analysis and IC50 values generated.

The test system of another assay is A427 cells. Kind of assay: Cell viability (CellTiter-Glo), A427. As to conditions: Homo sapiens, A-427; cell viability after 72 hours. It is filed as cell-based. How it is done:
as §1

Where [2] appears, read: 8 h, Table 2, colorectal cancer cells, eight hours incubation.

Where two headings read alike, the source gives them in different places.

Sequence of Wee-1 kinase (P30291 whole entry): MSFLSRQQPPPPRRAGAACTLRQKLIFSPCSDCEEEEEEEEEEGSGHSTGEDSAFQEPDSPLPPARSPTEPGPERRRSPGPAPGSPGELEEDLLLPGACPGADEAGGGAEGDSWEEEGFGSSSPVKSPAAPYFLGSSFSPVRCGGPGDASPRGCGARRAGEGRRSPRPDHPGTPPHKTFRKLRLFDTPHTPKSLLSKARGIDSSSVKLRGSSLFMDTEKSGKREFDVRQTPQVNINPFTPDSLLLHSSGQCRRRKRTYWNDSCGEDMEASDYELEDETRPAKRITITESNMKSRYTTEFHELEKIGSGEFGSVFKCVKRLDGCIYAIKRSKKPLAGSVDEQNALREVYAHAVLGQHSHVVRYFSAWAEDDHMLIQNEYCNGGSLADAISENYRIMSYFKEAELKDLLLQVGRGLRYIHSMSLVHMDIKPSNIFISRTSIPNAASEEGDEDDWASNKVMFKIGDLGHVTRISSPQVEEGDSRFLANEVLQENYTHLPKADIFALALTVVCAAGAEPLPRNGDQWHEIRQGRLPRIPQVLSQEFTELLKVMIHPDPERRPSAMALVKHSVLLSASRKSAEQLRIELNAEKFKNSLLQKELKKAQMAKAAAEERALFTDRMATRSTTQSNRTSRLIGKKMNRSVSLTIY

One may read the EC50 as the concentration at which the effect is half-maximal. In the case of `C=CCn1c(=O)c2cnc(Nc3ccc(N4CCOCC4)cc3)nc2n1-c1cccc(N=S(C)(C)=O)n1` [Example 12, 1-(6-{[Dimethyl(oxo)-λ^6-sulfanylidene]amino}pyridine-2-yl)-6-{[4-(morpholin-4-yl)phenyl]amino}-2-(prop-2-en-1-yl)-1H,2H,3H-pyrazolo[3,4-d]pyrimidin-3-one], the IC50 amounted to 0.5 nM on Wee-1 kinase (Table 7, data obtained as described in the experimental section of the current invention, read-out: Wee-1/nM) and 0.5 nM at Wee-1 kinase (read-out: Wee1 IC50). In addition, the EC50 is 27 nM with A498 cells; 27 nM with HT29 cells; 30 nM with SK-LU-1 cells; 26 nM in assay [1] (setting [2]); 26 nM in assay [1] (Table 3); 27 nM with A427 cells.
Turning to `C=CCn1c(=O)c2cnc(Nc3ccc(N4CCO[C@H](COC)C4)cc3)nc2n1-c1cccc(N=S(C)(C)=O)n1` [Example 54, 1-(6-{[Dimethyl(oxo)-λ^6-sulfanylidene]amino}pyridin-2-yl)-6-({4-[(2S)-2-(methoxymethyl)morpholin-4-yl]phenyl}amino)-2-(prop-2-en-1-yl)-1H,2H,3H-pyrazolo[3,4-d]pyrimidin-3-one], the IC50 on Wee-1 kinase (read-out: Wee1 IC50) worked out at 0.3 nM. Also, the concentration giving a half-maximal response (EC50) in the assay with A498 cells stood at 16 nM; in the assay on HT29 cells it was 32 nM; in the assay with SK-LU-1 cells, 35 nM; in assay [1] (setting [2]), 5 nM; in assay [1] (Table 3), 5 nM; in the assay with A427 cells it was 17 nM.

The values above are taken from patent publication US10766902B2, “Wee-1 inhibiting pyrazolopyrimidinone compounds” (ALMAC DISCOVERY LIMITED, priority 2016, dated 2020).
